Assay results taken from ChEMBL document CHEMBL4732252, “Generating Selective Leads for Mer Kinase Inhibitors-Example of a Comprehensive Lead-Generation Strategy” (J Med Chem, 2021).
Values after ≈ are worked out from the molar mass of the structure shown.

Columns and labels:
[1] = biological target: T1, Tyrosine-protein kinase Mer (Homo sapiens, UniProt Q12866); test: (§1) Inhibition of 6His/thrombin cleavage site-fused Avi-tagged dephosphorylated MER (unknown origin) (R528 to M999 residues) using Axltide (CKKSRGDYMTMQJG-acid) peptide as substrate preincubated for 30 mins followed by substrate and ATP addition at Km concentration measured after 120 mins by RapidFire LC-MS analysis
T1 sequence (Q12866 whole entry): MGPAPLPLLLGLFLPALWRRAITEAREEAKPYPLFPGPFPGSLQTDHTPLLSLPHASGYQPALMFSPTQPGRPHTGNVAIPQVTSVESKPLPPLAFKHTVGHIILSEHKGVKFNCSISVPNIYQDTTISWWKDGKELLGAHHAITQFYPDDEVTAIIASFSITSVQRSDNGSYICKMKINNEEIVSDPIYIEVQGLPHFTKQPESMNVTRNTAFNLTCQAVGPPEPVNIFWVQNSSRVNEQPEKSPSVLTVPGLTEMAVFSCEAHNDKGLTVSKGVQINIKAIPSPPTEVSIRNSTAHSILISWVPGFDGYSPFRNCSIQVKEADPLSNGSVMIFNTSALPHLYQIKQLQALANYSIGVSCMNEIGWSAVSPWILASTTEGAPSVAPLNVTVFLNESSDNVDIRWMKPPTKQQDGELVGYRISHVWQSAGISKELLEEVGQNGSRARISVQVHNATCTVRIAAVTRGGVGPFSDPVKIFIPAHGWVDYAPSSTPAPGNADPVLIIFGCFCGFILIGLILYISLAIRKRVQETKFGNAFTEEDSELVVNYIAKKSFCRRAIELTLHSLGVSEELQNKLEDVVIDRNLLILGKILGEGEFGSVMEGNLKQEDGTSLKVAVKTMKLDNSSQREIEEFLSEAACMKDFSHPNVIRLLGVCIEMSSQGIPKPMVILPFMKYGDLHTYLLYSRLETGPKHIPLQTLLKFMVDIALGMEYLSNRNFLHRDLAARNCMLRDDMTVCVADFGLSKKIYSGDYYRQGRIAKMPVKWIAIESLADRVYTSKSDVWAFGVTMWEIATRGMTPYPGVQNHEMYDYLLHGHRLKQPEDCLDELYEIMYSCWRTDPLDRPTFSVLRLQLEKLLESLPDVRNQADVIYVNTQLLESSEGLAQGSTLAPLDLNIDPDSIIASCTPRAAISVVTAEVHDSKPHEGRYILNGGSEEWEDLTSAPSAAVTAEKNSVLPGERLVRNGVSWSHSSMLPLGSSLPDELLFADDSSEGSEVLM

[2] = Intrinsic clearance in rat hepatocytes assessed per 10^6 cells; format: ADME, cell-based, Hepatocyte; conditions: read-out: CLH
[3] = Intrinsic clearance in human liver microsomes; format: ADME, Microsome; conditions: read-out: CLH
[4] = Aqueous solubility of the compound; format: physicochemical
[5] = biological target: T2, Tyrosine-protein kinase Mer (Homo sapiens) (UniProt Q12866); test: as §1, with “residues) at 1 uM” for “residues)”, “analysis relative to control” for “analysis”; conditions: time 150.0 min
T2 sequence (whole entry): T1 sequence (Q12866 whole entry)

[6] = biological target: Tyrosine-protein kinase receptor UFO (Homo sapiens) (UniProt P30530); test: Inhibition of GST-tagged AXL (unknown origin) ([…] residues) at 1 uM using Axltide (CKKSRGDYMTMQJG-acid) peptide as substrate preincubated for 30 mins followed by substrate and ATP addition at Km concentration measured after 180 mins by RapidFire LC-MS analysis relative to control; conditions: time 210.0 min
Chain of Tyrosine-protein kinase receptor UFO (Homo sapiens) (P30530 whole entry, the tested form may be a part): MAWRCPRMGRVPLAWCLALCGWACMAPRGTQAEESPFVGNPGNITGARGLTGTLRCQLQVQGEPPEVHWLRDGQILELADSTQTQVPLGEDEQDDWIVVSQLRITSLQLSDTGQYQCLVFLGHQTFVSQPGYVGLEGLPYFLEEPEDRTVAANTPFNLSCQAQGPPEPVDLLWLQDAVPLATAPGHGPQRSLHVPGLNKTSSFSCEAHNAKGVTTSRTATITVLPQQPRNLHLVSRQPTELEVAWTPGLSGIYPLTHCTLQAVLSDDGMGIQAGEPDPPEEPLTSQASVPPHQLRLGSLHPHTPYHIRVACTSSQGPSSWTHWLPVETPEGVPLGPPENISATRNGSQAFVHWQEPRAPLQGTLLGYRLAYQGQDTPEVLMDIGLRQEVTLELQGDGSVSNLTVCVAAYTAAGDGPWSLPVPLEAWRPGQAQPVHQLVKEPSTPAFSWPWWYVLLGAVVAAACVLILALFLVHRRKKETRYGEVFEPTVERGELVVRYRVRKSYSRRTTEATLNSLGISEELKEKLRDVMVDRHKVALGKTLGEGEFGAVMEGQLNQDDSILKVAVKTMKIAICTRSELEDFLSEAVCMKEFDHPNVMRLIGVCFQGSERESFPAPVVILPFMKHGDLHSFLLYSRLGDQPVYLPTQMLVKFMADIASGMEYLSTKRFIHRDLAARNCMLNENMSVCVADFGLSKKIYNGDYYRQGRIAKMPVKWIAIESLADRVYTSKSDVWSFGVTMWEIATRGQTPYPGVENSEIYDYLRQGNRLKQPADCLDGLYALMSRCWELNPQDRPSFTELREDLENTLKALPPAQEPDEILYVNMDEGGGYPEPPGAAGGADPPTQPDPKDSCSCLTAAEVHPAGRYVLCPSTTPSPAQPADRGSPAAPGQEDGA

[7] = organism: Homo sapiens; test: Selectivity ratio of pIC50 for His6/TEV fused-GST-tagged Flt3 (unknown origin) (H564 to S993 residues) to pIC50 for 6His/thrombin cleavage site-fused Avi-tagged dephosphorylated MER (unknown origin) (R528 to M999 residues)
[8] = organism: Homo sapiens; test: Selectivity ratio of pIC50 for His6/TEV fused-GST-tagged Flt3 (unknown origin) (H564 to S993 residues) to pIC50 for GST-tagged AXL (unknown origin) ([…] residues)

| Structure (SMILES) | IC50 [1] | hepatocyte CLint [2] | microsomal CLint [3] | solubility [4] | inhibition [5] | inhibition [6] | Ratio pIC50 [7] | Ratio pIC50 [8] |
| --- | --- | --- | --- | --- | --- | --- | --- | --- |
| CN(Cc1ccc2nccn2c1)c1nnc(-c2ccc(-c3ccccc3Cl)cc2)o1 | 5.01 nM | 21 µL/min/1e6 cells | 46 µL/min/mg | 1.1 µM (≈ 0.457 µg/mL) | – | – | – | – |
| Cc1cc(N(C)C)ccc1-c1nnc(N(C)Cc2ccc3nccn3c2)o1 | 631 nM | 44 µL/min/1e6 cells | 55 µL/min/mg | 23 µM (≈ 8.34 µg/mL) | – | – | – | – |
| O=S(=O)(c1ccc(Nc2ncc(N3CCOCC3)c(Nc3ccccc3)n2)cc1)N1CCCCC1 | 50.1 nM | 88 µL/min/1e6 cells | 190 µL/min/mg | 0.6 µM (≈ 0.297 µg/mL) | – | – | – | – |
| CNC(=O)c1sc(N2CC3CC2(CNC(=O)c2c[nH]c4ncc(Cl)cc24)C3)nc1C(F)(F)F | 25.1 nM | 120 µL/min/1e6 cells | > 300 µL/min/mg | 2 µM (≈ 0.998 µg/mL) | > 75% | > 75% | > 60 | > 60 |
| COc1cc2ncnc(Nc3cnc(OCCC4CC4)nc3)c2cc1OCC1CCNCC1 | 251 nM | 3 µL/min/1e6 cells | < 3 µL/min/mg | 260 µM (≈ 117 µg/mL) | – | – | – | – |
| CN(Cc1ccc2nccn2c1)c1nnc(-c2ncc(C(F)(F)F)cc2Cl)o1 | 794 nM | 6 µL/min/1e6 cells | 11 µL/min/mg | 301 µM (≈ 123 µg/mL) | – | – | – | – |
| CCn1c(-c2nnc(N(C)Cc3ccc4nccn4c3)o2)nc2ccccc21 | 631 nM | 22 µL/min/1e6 cells | 55 µL/min/mg | 120 µM (≈ 44.8 µg/mL) | – | – | – | – |
| CNC(=O)c1sc(N2CC3CC2(CNC(=O)c2c[nH]c4ncc(C(F)(F)F)cc24)C3)nc1C(F)(F)F | 63.1 nM | 78 µL/min/1e6 cells | 130 µL/min/mg | < 1.6 µM | – | – | – | – |
| CN(Cc1ccc2c(c1)CCCO2)c1nnc(-c2ccc(-c3ccccc3Cl)cc2)o1 | 25.1 nM | 19 µL/min/1e6 cells | 19 µL/min/mg | 0.1 µM (≈ 0.0432 µg/mL) | – | – | – | – |
| CNC(=O)c1sc(N2CC3CC2(CNC(=O)c2c[nH]c4ncccc24)C3)nc1C(F)(F)F | 25.1 nM | 33 µL/min/1e6 cells | 200 µL/min/mg | < 1.6 µM | – | – | – | – |
| CNc1nc(OCC2CCC2)nc2c1ncn2Cc1c(F)cccc1F | 50.1 nM | 160 µL/min/1e6 cells | > 270 µL/min/mg | 4 µM (≈ 1.44 µg/mL) | – | – | – | – |
| CN(Cc1ccc2nccn2c1)c1nnc(-c2ccc(-c3ccccc3Cl)nc2)o1 | 126 nM | 16 µL/min/1e6 cells | 92 µL/min/mg | 10 µM (≈ 4.17 µg/mL) | – | – | – | – |
| CN(Cc1ccc2nccn2c1)c1nnc(-c2ccc(OC3CCCC3)cc2)o1 | 100 nM | 52 µL/min/1e6 cells | 150 µL/min/mg | 33 µM (≈ 12.9 µg/mL) | – | – | – | – |
| C[C@@H]1CN(c2cnc(Nc3cc(F)c(OCC4CC4)c(F)c3)nc2NC2CCOCC2)CCN1 | 50.1 nM | < 2.4 µL/min/1e6 cells | < 3 µL/min/mg | 400 µM (≈ 190 µg/mL) | – | – | – | – |
| CNC(=O)c1sc(N2CC3CC2(CNC(=O)c2c[nH]c4ncc(C)cc24)C3)nc1C(F)(F)F | 12.6 nM | 92 µL/min/1e6 cells | > 270 µL/min/mg | < 1.6 µM | – | – | – | – |
| CNC(=O)C[C@@H](NC(=O)[C@@H](CCc1ccccc1)NC(=O)c1c(C)noc1-c1snnc1C)c1ccc(C(F)(F)F)cc1 | 5.01 nM | 260 µL/min/1e6 cells | > 300 µL/min/mg | < 0.2 µM | – | – | – | – |
| Cc1c(C(=O)Nc2ccc(Oc3ccnc4[nH]cc(-c5ccccc5)c34)c(F)c2)c(=O)n(-c2ccc(F)cc2)n1C | 1.58 nM | 210 µL/min/1e6 cells | 16 µL/min/mg | 0.01 µM (≈ 0.00552 µg/mL) | – | – | – | – |
